Earlier results in patent US20120003325A1, “USE OF HELIUM-OXYGEN GAS MIXTURES FOR TREATING PULMONARY ARTERIAL HYPERTENSION” (BAYER SCHERING PHARMA AKTIENGESELLSCHAFT, priority 2008, published 2012).

Conditions: oil-water mixture

**Q.** Which “solubility relative to the solubility of oxygen or nitrogen” value does the source give for [He] [helium] here?
**A.** 30%
